Data reported in patent publication US20250304620A1, “ANTIMICROBIAL PEPTIDE AND APPLICATION THEREOF” (priority 2023, published 2025).
In brackets after ≈: the same amount, converted by molar mass. Marks after values point to notes of the source that are not given here. Non-standard residues stand in square brackets, D forms with d. Residues, ends and D or L forms follow the SMILES beside them. d2Nal = N[C@H](Cc1ccc2ccccc2c1)C(=O)O

Key:
[1] = system: Staphylococcus aureus (NRS 384); assay: microbe, parasite or virus in culture; assay type: cell-based; conditions: NRS 384
In short: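 CLSI broth microdilution with serial twofold dilutions gave MICs against S. aureus NRS 384, with 5 parallel replicates. Levofloxacin and the AMP Cbf-K16 served as positive controls.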

[2] = system: Escherichia coli ATCC 25922; assay: Oral formulations on mice with systemic bacterial infection; assay type: in vivo, ICR mice; conditions: three times a day for 7 days; for Number of mice that died on each day after infection: day 4 / Number of mice that died on each day after infection: day 5 / Number of mice that died on each day after infection: day 6 / Number of mice that died on each day after infection: day 7 / Number of mice that died on each day after infection: day 8 / Average survival times (Days): n = 10; for Average survival times (Days): observed for 14 d
In short: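 ICR mice of both sexes, 10 per group, infected i.p. with 0.2 mL E. coli ATCC 25922 at 1×10^7 CFU/mL. Compounds gavaged by body weight immediately after infection, three times daily for 7 days; deaths and survival time recorded over 14 d observation.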

[3] = system: Trichophyton ATCC MYA-4438; assay type: cell-based
Excerpt: (§1) According to the Standards of Clinical and Laboratory Standards Institute (CLSI) of the USA for antimicrobial drug susceptibility test operation standards, the micronutrient serial twofold dilution method was used further determine MICs of 30 AMPs (S/N: LV-1 to LV-30) 10 clinically common sensitive strains and 6 fungi in clinical practice. The experiment was repeated 5 times in parallel.

[4] = system: Candida utilis ATCC 9950; assay type: cell-based
Excerpt: as §1

[5] = system: Pseudomonas aeruginosa ATCC 27853; assay type: cell-based
Excerpt: as §1

[6] = system: Serratia marcescens ATCC 29021; assay type: cell-based
Excerpt: as §1

[7] = system: Enterococcus ATCC 29212; assay type: cell-based
Excerpt: as §1

[8] = system: Candida krusei ATCC 6258; assay type: cell-based
Excerpt: as §1

[9] = system: Escherichia coli ATCC 25922; assay type: cell-based
Excerpt: as §1

[10] = system: Corynebacterium ATCC 7715; assay type: cell-based
Excerpt: as §1

[11] = system: Candida glabrata ATCC 15126; assay type: cell-based
Excerpt: as §1

[12] = system: Klebsiella pneumoniae ATCC 700603; assay type: cell-based
Excerpt: as §1

[13] = system: Candida albicans ATCC MYA-2876; assay type: cell-based
Excerpt: as §1

[14] = system: Salmonella typhimurium ATCC 14028; assay type: cell-based
Excerpt: as §1

[15] = system: Bacillus subtilis ATCC 6633; assay type: cell-based
Excerpt: as §1

[16] = system: Staphylococcus aureus ATCC 25923; assay type: cell-based
Excerpt: as §1

[17] = system: Candida tropicalis ATCC 750; assay type: cell-based
Excerpt: as §1

[18] = Serum stability assay (residual level by RP-HPLC); conditions: human
[19] = system: Staphylococcus aureus (NRS 384); conditions: NRS 384, 3 h
Experimental: Trypsin (250 U/mg, pH=8.0) and AMPs (LV-1 to LV-30) were mixed in a ratio of 1:10 (w/w) and added to a reaction buffer (0.2 M sodium phosphate, 1 mM CaCl2), pH 7.5), and then incubated at 37° C. for 3 h.

[20] = system: Shigella flexneri ATCC 12022; assay: MIC against clinically common bacterial strain; assay type: cell-based
Excerpt: as §1

Row | SMILES | MIC against Staphylococcus aureus (NRS 384) [1] [µg/mL] | Number of mice that died on each day after infection: day 4 ([2]; 1 mg/kg gavage) [Mouse] | Number of mice that died on each day after infection: day 5 ([2]; 1 mg/kg gavage) [Mouse] | Number of mice that died on each day after infection: day 6 ([2]; 1 mg/kg gavage) [Mouse] | Number of mice that died on each day after infection: day 7 ([2]; 1 mg/kg gavage) [Mouse] | Number of mice that died on each day after infection: day 8 ([2]; 1 mg/kg gavage) [Mouse] | Average survival times (Days) ([2]; 1 mg/kg gavage) | MIC Trichophyton ATCC MYA-4438 [3] [µg/mL] | MIC Candida utilis ATCC 9950 [4] [µg/mL] | MIC Pseudomonas aeruginosa ATCC 27853 [5] [µg/mL] | MIC Serratia marcescens ATCC 29021 [6] [µg/mL] | MIC Enterococcus ATCC 29212 [7] [µg/mL] | MIC Candida krusei ATCC 6258 [8] [µg/mL] | MIC Escherichia coli ATCC 25922 [9] [µg/mL] | MIC Corynebacterium ATCC 7715 [10] [µg/mL] | MIC Candida glabrata ATCC 15126 [11] [µg/mL] | MIC Klebsiella pneumoniae ATCC 700603 [12] [µg/mL] | MIC Candida albicans ATCC MYA-2876 [13] [µg/mL] | MIC Salmonella typhimurium ATCC 14028 [14] [µg/mL] | MIC Bacillus subtilis ATCC 6633 [15] [µg/mL] | other results
1 | CC(=O)N[C@H](CCCNC(=N)N)C(=O)N[C@H](CCCCN)C(=O)N[C@H](CC(C)C)C(=O)N[C@H](CC(C)C)C(=O)N[C@H](Cc1ccc2ccccc2c1)C(=O)N[C@H](CCCNC(=N)N)C(=O)N[C@H](CC(C)C)C(=O)N[C@H](CCCCN)C(=O)N[C@H](Cc1ccc2ccccc2c1)C(=O)N[C@H](CCCNC(=N)N)C(=O)N[C@H](CCCNC(=N)N)C(N)=O [LV-22] (Ac-[dR][dK][dL][dL][d2Nal][dR][dL][dK][d2Nal][dR][dR]-NH2) | 1 (≈ 0.597 µM) | 0 | 2 | 1 | 1 | 2 | 9.5** Days | 4 (≈ 2.39 µM) | 16 (≈ 9.56 µM) | 2 (≈ 1.19 µM) | 4 (≈ 2.39 µM) | 2 (≈ 1.19 µM) | 8 (≈ 4.78 µM) | 2 (≈ 1.19 µM) | 4 (≈ 2.39 µM) | 8 (≈ 4.78 µM) | 2 (≈ 1.19 µM) | 8 (≈ 4.78 µM) | 4 (≈ 2.39 µM) | 4 (≈ 2.39 µM) | MIC Staphylococcus aureus ATCC 25923 [16]: 1 µg/mL (≈ 0.597 µM); MIC Candida tropicalis ATCC 750 [17]: 8 µg/mL (≈ 4.78 µM); remaining at 12 h, 0.91 mg/mL [18]: 97.2%; Trypsin MIC [19]: 1 µg/mL; MIC Shigella flexneri ATCC 12022 [20]: 4 µg/mL (≈ 2.39 µM)
2 | CC(=O)N[C@H](CCCNC(=N)N)C(=O)N[C@H](CCCCN)C(=O)N[C@H](CC(C)C)C(=O)N[C@H](CC(C)C)C(=O)N[C@H](Cc1ccc2ccccc2c1)C(=O)N[C@H](CCCCN)C(=O)N[C@H](CC(C)C)C(=O)N[C@H](CCCCN)C(=O)N[C@H](Cc1ccc2ccccc2c1)C(=O)N[C@H](CCCCN)C(=O)N[C@H](CCCNC(=N)N)C(N)=O [LV-18] (Ac-[dR][dK][dL][dL][d2Nal][dK][dL][dK][d2Nal][dK][dR]-NH2) | 1 (≈ 0.618 µM) | 0 | 1 | 0 | 1 | 0 | 12.4**** Days | 16 (≈ 9.89 µM) | 8 (≈ 4.94 µM) | 1 (≈ 0.618 µM) | 4 (≈ 2.47 µM) | 4 (≈ 2.47 µM) | 4 (≈ 2.47 µM) | 1 (≈ 0.618 µM) | 2 (≈ 1.24 µM) | 4 (≈ 2.47 µM) | 2 (≈ 1.24 µM) | 4 (≈ 2.47 µM) | 4 (≈ 2.47 µM) | 4 (≈ 2.47 µM) | Number of mice that died on each day after infection: day 4 ([2]; 0.2 mg/kg gavage): 0 Mouse; Number of mice that died on each day after infection: day 5 ([2]; 0.2 mg/kg gavage): 1 Mouse; Number of mice that died on each day after infection: day 6 ([2]; 0.2 mg/kg gavage): 2 Mouse; Number of mice that died on each day after infection: day 7 ([2]; 0.2 mg/kg gavage): 1 Mouse; Number of mice that died on each day after infection: day 8 ([2]; 0.2 mg/kg gavage): 0 Mouse; Average survival times (Days) ([2]; 0.2 mg/kg gavage): 10.8*** Days; Number of mice that died on each day after infection: day 4 ([2]; 5 mg/kg gavage): 0 Mouse; Number of mice that died on each day after infection: day 5 ([2]; 5 mg/kg gavage): 1 Mouse; Number of mice that died on each day after infection: day 6 ([2]; 5 mg/kg gavage): 2 Mouse; Number of mice that died on each day after infection: day 7 ([2]; 5 mg/kg gavage): 0 Mouse; Number of mice that died on each day after infection: day 8 ([2]; 5 mg/kg gavage): 0 Mouse; Average survival times (Days) ([2]; 5 mg/kg gavage): 11.5**** Days; survival time of mice infected with Escherichia coli ([2]; gavage, observed 14 d): superior to those of the Levofloxacin group; MIC Staphylococcus aureus ATCC 25923 [16]: 2 µg/mL (≈ 1.24 µM); MIC Candida tropicalis ATCC 750 [17]: 2 µg/mL (≈ 1.24 µM); remaining at 12 h, 0.91 mg/mL [18]: 97.6%; Trypsin MIC [19]: 1 µg/mL; MIC Shigella flexneri ATCC 12022 [20]: 8 µg/mL (≈ 4.94 µM)
3 | CC(=O)N[C@H](CCCNC(=N)N)C(=O)N[C@H](CCCNC(=N)N)C(=O)N[C@H](CC(C)C)C(=O)N[C@H](CC(C)C)C(=O)N[C@H](Cc1ccc2ccccc2c1)C(=O)N[C@H](CCCCN)C(=O)N[C@H](CC(C)C)C(=O)N[C@H](CCCCN)C(=O)N[C@H](Cc1ccc2ccccc2c1)C(=O)N[C@H](CCCCN)C(=O)N[C@H](CCCNC(=N)N)C(N)=O [LV-24] (Ac-[dR][dR][dL][dL][d2Nal][dK][dL][dK][d2Nal][dK][dR]-NH2) | 1 (≈ 0.607 µM) | 1 | 1 | 0 | 2 | 1 | 10.1*** Days | 4 (≈ 2.43 µM) | 8 (≈ 4.86 µM) | 2 (≈ 1.21 µM) | 2 (≈ 1.21 µM) | 4 (≈ 2.43 µM) | 8 (≈ 4.86 µM) | 1 (≈ 0.607 µM) | 4 (≈ 2.43 µM) | 4 (≈ 2.43 µM) | 4 (≈ 2.43 µM) | 8 (≈ 4.86 µM) | 1 (≈ 0.607 µM) | 2 (≈ 1.21 µM) | MIC Staphylococcus aureus ATCC 25923 [16]: 1 µg/mL (≈ 0.607 µM); MIC Candida tropicalis ATCC 750 [17]: 8 µg/mL (≈ 4.86 µM); remaining at 12 h, 0.91 mg/mL [18]: 98.3%; Trypsin MIC [19]: 1 µg/mL; MIC Shigella flexneri ATCC 12022 [20]: 2 µg/mL (≈ 1.21 µM)
4 | CC(=O)N[C@H](CCCNC(=N)N)C(=O)N[C@H](CCCCN)C(=O)N[C@@H](C(=O)N[C@@H](C(=O)N[C@H](Cc1ccc2ccccc2c1)C(=O)N[C@H](CCCNC(=N)N)C(=O)N[C@@H](C(=O)N[C@H](CCCCN)C(=O)N[C@H](Cc1ccc2ccccc2c1)C(=O)N[C@H](CCCNC(=N)N)C(=O)N[C@H](CCCCN)C(N)=O)C(C)C)C(C)C)C(C)C [LV-16] (Ac-[dR][dK][dV][dV][d2Nal][dR][dV][dK][d2Nal][dR][dK]-NH2) | 1 (≈ 0.623 µM) | 1 | 1 | 1 | 0 | 2 | 10.1*** Days | 8 (≈ 4.99 µM) | 8 (≈ 4.99 µM) | 4 (≈ 2.49 µM) | 4 (≈ 2.49 µM) | 2 (≈ 1.25 µM) | 4 (≈ 2.49 µM) | 1 (≈ 0.623 µM) | 2 (≈ 1.25 µM) | 16 (≈ 9.97 µM) | 2 (≈ 1.25 µM) | 8 (≈ 4.99 µM) | 2 (≈ 1.25 µM) | 4 (≈ 2.49 µM) | MIC Staphylococcus aureus ATCC 25923 [16]: 1 µg/mL (≈ 0.623 µM); MIC Candida tropicalis ATCC 750 [17]: 4 µg/mL (≈ 2.49 µM); remaining at 12 h, 0.91 mg/mL [18]: 98.4%; Trypsin MIC [19]: 1 µg/mL; MIC Shigella flexneri ATCC 12022 [20]: 2 µg/mL (≈ 1.25 µM)
